Biological target: PDE4B (Homo sapiens, UniProt Q07343)
Assay: Scintillation Proximity Assay (SPA) of PDE4B enzyme activity ([H3]-cAMP cleavage)
Format: biochemical
Details: test substance 1 μM; one-hour incubation of [H3]-cAMP with PDE4B enzyme at 30° C.
Procedure, shortened: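 Percent inhibition at 1 μM compound, measured against an uninhibited reaction. PDE4B hydrolysed tritiated cAMP for one hour at 30 °C, then scintillator beads were added to capture [H3]-5′-AMP. Light events were counted after 45 min bead settling.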

Sequence of PDE4B (Q07343 whole entry, species assumed): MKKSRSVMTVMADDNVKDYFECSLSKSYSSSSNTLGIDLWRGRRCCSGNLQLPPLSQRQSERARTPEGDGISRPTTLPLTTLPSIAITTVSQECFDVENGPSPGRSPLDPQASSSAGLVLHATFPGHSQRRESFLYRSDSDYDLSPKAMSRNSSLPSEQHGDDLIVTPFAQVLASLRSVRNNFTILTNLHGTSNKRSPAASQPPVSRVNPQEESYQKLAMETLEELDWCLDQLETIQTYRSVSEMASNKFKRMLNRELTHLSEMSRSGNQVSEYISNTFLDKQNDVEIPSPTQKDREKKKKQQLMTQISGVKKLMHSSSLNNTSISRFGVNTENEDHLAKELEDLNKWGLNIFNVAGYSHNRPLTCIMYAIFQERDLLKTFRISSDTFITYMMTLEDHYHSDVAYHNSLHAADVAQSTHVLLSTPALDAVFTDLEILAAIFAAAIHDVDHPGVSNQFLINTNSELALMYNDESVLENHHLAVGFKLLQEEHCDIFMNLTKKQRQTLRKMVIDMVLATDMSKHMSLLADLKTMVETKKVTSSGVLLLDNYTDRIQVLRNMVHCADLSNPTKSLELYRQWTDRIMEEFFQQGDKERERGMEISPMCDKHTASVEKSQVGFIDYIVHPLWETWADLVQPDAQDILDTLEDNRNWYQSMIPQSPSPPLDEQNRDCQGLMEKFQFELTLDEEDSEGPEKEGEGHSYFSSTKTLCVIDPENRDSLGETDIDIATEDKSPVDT

Row | Compound | inhibition at 1 µM [%]
1 | [O-][S+]1CCc2nc(N3CCC(c4c[nH]cn4)CC3)nc(NC3(CO)CC3)c21 (centres unmarked) [Example 27] | 87
2 | [O-][S+]1CCc2nc(N3CCC(O)(c4cc(F)cc(F)c4)CC3)nc(NC3(CO)CC3)c21 (centres unmarked) [Example 33] | 95
3 | CN1C[C@@H](Nc2nc(N3CCC(c4nc5ccccc5o4)CC3)nc3c2[S+]([O-])CC3)CCC1=O (stereo partly drawn) [Example 100, (S)-5-[2-(4-Benzoxazol-2-Yl-Piperidin-1-Yl)-5-Oxo-6,7-Dihydro-5H-5λ^4-Thieno[3,2-d]Pyrimidin-4-Ylamino]-1-Methylpiperidin-2-One] | 97
4 | COC(=O)c1cccc(C2CCN(c3nc4c(c(Nc5cccc(F)c5)n3)[S+]([O-])CC4)CC2)c1 (centres unmarked) [Example 135] | 96
5 | N#Cc1ccc(C2CCN(c3nc4c(c(Nc5cccc(F)c5)n3)[S+]([O-])CC4)CC2)cc1 (centres unmarked) [Example 79] | 96
6 | CN1C[C@@H](Nc2nc(N3CCC(c4ccc(Cl)cc4)CC3)nc3c2[S+]([O-])CC3)CCC1=O (stereo partly drawn) [Example 5, (S)-5-{2-[4-(4-chlorophenyl)-piperidin-1-yl]-5-oxo-6,7-dihydro-5H-5λ^4-thieno[3,2-d]pyrimidin-4-ylamino}-1-methylpiperidin-2-one] | 94
7 | [O-][S+]1CCc2nc(N3CCC(c4ccc5ccccc5c4)CC3)nc(NC3CCOCC3)c21 (centres unmarked) [Example 127] | 96
8 | CC(C)[C@H](CO)Nc1nc(N2CCC(c3c[nH]c4ccccc34)CC2)nc2c1[S+]([O-])CC2 (some centres unmarked) [Example 12] | 94
9 | [O-][S+]1CCc2nc(N3CCC(c4ccncc4)CC3)nc(NC3CCOCC3)c21 (centres unmarked) [Example 63] | 92
10 | [O-][S+]1CCc2nc(N3CCC(c4noc5ccccc45)CC3)nc(NC3(CO)CC3)c21 (centres unmarked) [Example 31] | 97
11 | Cc1noc(C2CCN(c3nc4c(c(NC5CCOCC5)n3)[S+]([O-])CC4)CC2)n1 (centres unmarked) [Example 68] | 93
12 | [O-][S+]1CCc2nc(N3CCC(c4ccc(F)cc4F)CC3)nc(NC3(CO)CC3)c21 (centres unmarked) [Example 89, (1-{2-[4-(2,4-Difluorophenyl)-Piperidin-1-Yl]-5-Oxo-6,7-Dihydro-5H-5λ^4-Thieno[3,2-d]Pyrimidin-4-Ylamino}-Cyclopropyl)-Methanol] | 93
13 | CC(C)[C@H](CO)Nc1nc(N2CCC(c3ccc(Cl)cc3)CC2)nc2c1[S+]([O-])CC2 (stereo partly drawn) [Example 1, (R)-2-{2-[4-(4-chlorophenyl)-piperidin-1-yl]-5-oxo-6,7-dihydro-5H-5λ^4-thieno[3,2-d]pyrimidin-4-ylamino}-3-methylbutan-1-ol] | 93
14 | [O-][S+]1CCc2nc(N3CCC(c4cc(-c5ccco5)n[nH]4)CC3)nc(NC3CCOCC3)c21 (centres unmarked) [Example 130] | 96
15 | CCc1[nH]c2ccc(F)cc2c1C1CCN(c2nc3c(c(NC4CCOCC4)n2)[S+]([O-])CC3)CC1 (centres unmarked) [Example 67] | 93
16 | [O-][S+]1CCc2nc(N3CCC(c4ccc(Cl)cc4)CC3)nc(NC3(CO)CC3)c21 (centres unmarked) [Example 2, (1-{2-[4-(4-Chlorophenyl)-Piperidin-1-Yl]-5-Oxo-6,7-Dihydro-5H-5λ^4-Thieno[3,2-d]Pyrimidin-4-Ylamino}-Cyclopropyl)-Methanol] | 94
17 | [O-][S+]1CCc2nc(N3CCC(c4ccc5ccccc5c4)CC3)nc(Nc3cccc(F)c3)c21 (centres unmarked) [Example 142] | 94
18 | CCC[C@H](CO)Nc1nc(N2CCC(c3ccc(Cl)cc3)CC2)nc2c1[S+]([O-])CC2 (stereo partly drawn) [Example 3, (R)-2-{2-[4-(4-chlorophenyl)-piperidin-1-yl]-5-oxo-6,7-dihydro-5H-5λ^4-thieno[3,2-d]pyrimidin-4-ylamino}-pentan-1-ol] | 94
19 | [O-][S+]1CCc2nc(N3CCC(c4nc5cc(Cl)ccc5s4)CC3)nc(NC3CCOCC3)c21 (centres unmarked) [Example 118] | 96
20 | [O-][S+]1CCc2nc(N3CCC(c4c[nH]c5ccccc45)CC3)nc(NC3CCOCC3)c21 (centres unmarked) [Example 56] | 96
21 | [O-][S+]1CCc2nc(N3CCC(c4noc5ccccc45)CC3)nc(NC3CCOCC3)c21 (centres unmarked) [Example 60] | 97

Same assay, conditions: test substance 1 μM; one-hour incubation with [H3]-cAMP at 30° C.

Row | Compound | inhibition at 1 µM [%]
22 | [O-][S+]1CCc2nc(N3CCC(c4cc(-c5cccs5)[nH]n4)CC3)nc(Nc3cccc(F)c3)c21 (centres unmarked) [Example 287] | 89
23 | COCC(=O)NCC1(c2ccccc2)CCN(c2nc3c(c(NC4CCOCC4)n2)[S+]([O-])CC3)CC1 (centres unmarked) [Example 217] | 88
24 | CS(=O)(=O)NCC1(c2ccccc2)CCN(c2nc3c(c(NC4CCOCC4)n2)[S+]([O-])CC3)CC1 (centres unmarked) [Example 325] | 87
25 | CC(C)c1ccc(OC2CCN(c3nc4c(c(NC5CCOCC5)n3)[S+]([O-])CC4)CC2)cc1 (centres unmarked) [Example 269] | 94
26 | O=C(c1ccc(C2CCN(c3nc4c(c(NC5CCOCC5)n3)[S+]([O-])CC4)CC2)cc1)N1CCOCC1 (centres unmarked) [Example 227] | 83
27 | Cn1nc(-c2ccco2)cc1C1CCN(c2nc3c(c(NC4CCOCC4)n2)[S+]([O-])CC3)CC1 (centres unmarked) [Example 200, {2-[4-(5-furan-2-yl-2-methyl-2H-pyrazol-3-yl)-piperidin-1-yl]-5-oxo-6,7-dihydro-5H-5λ^4-thieno[3,2-d]pyrimidin-4-yl}-(tetrahydropyran-4-yl)-amine] | 97
28 | CC(C)[C@H](CO)Nc1nc(N2CCC(CNS(C)(=O)=O)(c3ccccc3)CC2)nc2c1[S+]([O-])CC2 (some centres unmarked) [Example 326] | 88
29 | [O-][S+]1CCc2nc(N3CCC(c4nc(-c5ccccc5)c(-c5ccccc5)o4)CC3)nc(NC3CCOCC3)c21 (centres unmarked) [Example 279] | 95
30 | COCC(=O)NCC1(c2ccccc2)CCN(c2nc3c(c(N[C@H]4CCC(=O)N(C)C4)n2)[S+]([O-])CC3)CC1 (some centres unmarked) [Example 202, 2-methoxy-N-{1-[4-(1-methyl-6-oxopiperidin-3-ylamino)-5-oxo-6,7-dihydro-5H-5λ^4-thieno[3,2-d]pyrimidin-2-yl]-4-phenylpiperidin-4-ylmethyl}-acetamide] | 96
31 | Cn1c(C2CCN(c3nc4c(c(NC5CCOCC5)n3)[S+]([O-])CC4)CC2)nc2ccccc21 (centres unmarked) [Example 212] | 93
32 | O=C(c1ccc(F)cc1)C1(c2ccc(F)cc2)CCN(c2nc3c(c(NC4CCOCC4)n2)[S+]([O-])CC3)CC1 (centres unmarked) [Example 297] | 73
33 | CN1C[C@@H](Nc2nc(N3CCC(CN(C)S(C)(=O)=O)(c4ccccc4)CC3)nc3c2[S+]([O-])CC3)CCC1=O (some centres unmarked) [Example 270, N-methyl-N-{1-[4-(1-methyl-6-oxo-piperidin-3-ylamino)-5-oxo-6,7-dihydro-5H-5λ^4-thieno[3,2-d]pyrimidin-2-yl]-4-phenylpiperidin-4-ylmethyl}-methanesulphonamide] | 95
34 | CC(C)[C@H](CO)Nc1nc(N2CCC(CN(C)S(C)(=O)=O)(c3ccccc3)CC2)nc2c1[S+]([O-])CC2 (some centres unmarked) [Example 331] | 85
35 | Cc1nn(C)cc1C(C)NC(=O)c1ccc(OC2CCN(c3nc4c(c(NC5CCOCC5)n3)[S+]([O-])CC4)CC2)cc1 (centres unmarked) [Example 244] | 95
36 | Cc1cn(C)nc1CN(C)C(=O)c1ccc(C2CCN(c3nc4c(c(NC5CCOCC5)n3)[S+]([O-])CC4)CC2)cc1 (centres unmarked) [Example 226] | 95
37 | CN1C[C@@H](Nc2nc(N3CCC(Oc4ccc(C5=NCCO5)cc4)CC3)nc3c2[S+]([O-])CC3)CCC1=O (some centres unmarked) [Example 199] | 96
38 | [O-][S+]1CCc2nc(N3CCC(Oc4ccncc4)CC3)nc(NC3CCOCC3)c21 (centres unmarked) [Example 268] | 80

Reference: patent US8754073B2, “Substituted piperazino-dihydrothienopyrimidines” (Boehringer Ingelheim International GmbH, priority 2007, dated 2014)
